The IC50 is the point on the concentration scale where inhibition reaches its midpoint. The low end stands for inhibition by little substance, the high end for a need for much substance.

The subject of one assay is HeLa cells. Description: HeLa cell inhibition assay (sulphorhodamine B cell viability). Particulars: 72 h, SRB. Type of assay: cell-based. As for the experimental part:
HeLa cells growing in log phase were harvested and seeded at 1000 cells/well (200 μl final volume) into 96-well tissue culture plates. Following 24 h of cell growth cells were treated with Compounds (final concentration of 20 μM). Plates were then re-incubated for a further 72 h before a sulphorhodamine B (SRB) cell viability assay was conducted according to the methodology described by Skehan et al, J. Natl. Canc. Inst., 1990, 82, 1107-1112.
Data were expressed as a percentage inhibition of the control, measured in the absence of inhibitor, as follows:— % inhibition=100−[(S^i/S^o)×100] where S^i is the signal in the presence of inhibitor and S^o is the signal in the presence of DMSO.
(§1) IC50 values were determined by non-linear regression analysis, after fitting the results of eight data points to the equation for sigmoidal dose response with variable slope (% activity against log concentration of Compound), using Graphpad Prism software.

A further assay has as its system U937 cells. Description: U937 cell inhibition assay (WST-1 cell viability). In kind it is cell-based. As for the experimental part:
(§2) Cancer cell lines (U937 and HUT) growing in log phase were harvested and seeded at 1000-2000 cells/well (100 μl final volume) into 96-well tissue culture plates. Following 24 h of growth cells were treated with Compound. Plates were then re-incubated for a further 72-96 h before a WST-1 cell viability assay was conducted according to the suppliers (Roche Applied Science) instructions.
(§3) Data were expressed as a percentage inhibition of the control, measured in the absence of inhibitor, as follows: % inhibition=100−[(S^i/S^o)×100] where S^i is the signal in the presence of inhibitor and S^o is the signal in the presence of DMSO.
(§4) Dose response curves were generated from 8 concentrations (top final concentration 10 μM, with 3-fold dilutions), using 6 replicates.
(§5) IC50 values were determined by non-linear regression analysis, after fitting the results to the equation for sigmoidal dose response with variable slope (% activity against log concentration of Compound), using Graphpad Prism software.
Background: Formazan colour is commonly taken as a measure of viable cells.

Assay [1] concerns the target T1, histone deacetylase activity (HeLa nuclear extract).
T1 construct: Histone deacetylase activity from crude nuclear extract derived from HeLa cells was used for screening
Briefly: Histone deacetylase activity (Biomol Fluor de Lys HDAC fluorescent activity assay). In kind it is biochemical. Particulars: Fluor de Lys substrate. The method, then:
The ability of compounds to inhibit histone deacetylase activities was measured using the commercially available HDAC fluorescent activity assay from Biomol. In brief, the Fluor de Lys™ substrate, a lysine with an epsilon-amino acetylation, is incubated with the source of histone deacetylase activity (HeLa nuclear extract) in the presence or absence of inhibitor. Deacetylation of the substrate sensitises the substrate to Fluor de Lys™ developer, which generates a fluorophore. Thus, incubation of the substrate with a source of HDAC activity results in an increase in signal that is diminished in the presence of an HDAC inhibitor.
Data are expressed as a percentage of the control, measured in the absence of inhibitor, with background signal being subtracted from all samples, as follows: % activity=[(S^i−B)/(S^o−B)]×100 where S^i is the signal in the presence of substrate, enzyme and inhibitor, S^o is the signal in the presence of substrate, enzyme and the vehicle in which the inhibitor is dissolved, and B is the background signal measured in the absence of enzyme.
as §1
Histone deacetylase activity from crude nuclear extract derived from HeLa cells was used for screening. The preparation, purchased from 4C (Seneffe, Belgium), was prepared from HeLa cells harvested whilst in exponential growth phase. The nuclear extract was prepared according to the methodology described by J. D. Dignam, Nucl. Acid. Res., 1983, 11, 1475-1489, snap frozen in liquid nitrogen and stored at −80° C. The final buffer composition was 20 mM Hepes, 100 mM KCl, 0.2 mM EDTA, 0.5 mM DTT, 0.2 mM PMSF and 20% (v/v) glycerol.

Another assay deals with HUT cells. Briefly: HUT cell inhibition assay (WST-1 cell viability). The settings on record: 72-96 h. Type of assay: cell-based. The method, then:
as §2, §3, §4, §5

In the case of `CC(C)C[C@H](NC1CCN(c2ncc(C(=O)NO)cn2)CC1)C(=O)OC1CCCC1` [Example 1, Cyclopentyl N-{1-[5-(hydroxycarbamoyl)pyrimidin-2-yl]piperidin-4-yl}-L-leucinate], the IC50 with HeLa cells (Homo sapiens) is greater than 3300 nM; in the assay on U937 cells (Homo sapiens, U-937, 72-96 h) it was less than 330 nM; in assay [1], 101 to 1000 nM; in the assay on HUT cells it was 331 to 3300 nM.

In the case of `O=C(NO)c1cnc(N2CC3C(CN[C@H](C(=O)OC4CCCC4)C4CCCCC4)C3C2)nc1` (stereo partly drawn) [Example 14, Cyclopentyl (2S)-cyclohexyl[({3-[5-(hydroxycarbamoyl)pyrimidin-2-yl]-3-azabicyclo[3.1.0]hex-6-yl}methyl)amino]acetate], the IC50 was 331 to 3300 nM in the assay on HeLa cells (Homo sapiens); 331 to 3300 nM with U937 cells (Homo sapiens, U-937, 72-96 h); less than 100 nM in assay [1]; 331 to 3300 nM in the assay on HUT cells.

Regarding `O=C(NO)c1cnc(N2CCC(CN[C@H](C(=O)OC3CCCC3)C3CCCCC3)CC2)nc1` [Example 18, Cyclopentyl (2S)-cyclohexyl[({1-[5-(hydroxycarbamoyl)pyrimidin-2-yl]piperidin-4-yl}methyl)amino]acetate], the half-maximal inhibitory concentration (IC50) with HeLa cells (Homo sapiens) was 331 to 3300 nM; in the assay with U937 cells (Homo sapiens, U-937, 72-96 h), less than 330 nM; in assay [1], less than 100 nM; in the assay on HUT cells, 331 to 3300 nM.

On to `CC(C)C[C@H](NCc1ccc(CNC2CCN(c3ncc(C(=O)NO)cn3)CC2)cc1)C(=O)OC1CCCC1` [Example 27, Cyclopentyl N-{4-[({1-[5-(hydroxycarbamoyl)pyrimidin-2-yl]piperidin-4-yl}amino)methyl]benzyl}-L-leucinate], for which the IC50 with HeLa cells (Homo sapiens) was 331 to 3300 nM; in the assay with U937 cells (Homo sapiens, U-937, 72-96 h), less than 330 nM; in assay [1], less than 100 nM; in the assay with HUT cells it was less than 330 nM.

For `O=C(NO)c1cnc(N2CCC(NCc3ccc(CN[C@H](C(=O)OC4CCCC4)c4ccccc4)cc3)CC2)nc1` [Example 29], the IC50 in the assay with HeLa cells (Homo sapiens) was 331 to 3300 nM; with U937 cells (Homo sapiens, U-937, 72-96 h), less than 330 nM; in assay [1], less than 100 nM; in the assay on HUT cells it was 331 to 3300 nM.

Take `O=C(NO)c1cnc(N2CCC(NCc3ccc(CN[C@H](C(=O)OC4CCCC4)c4ccccc4)cc3)CC2)nc1` [Example 31]: the 50% inhibitory concentration (IC50) is 331 to 3300 nM with HeLa cells, less than 330 nM with U937 cells (72-96 h), 101 to 1000 nM in assay [1] and 331 to 3300 nM in the assay on HUT cells.

Consider `O=C(NO)c1cnc(N2CCC(NCc3ccc(CN[C@H](C(=O)OC4CCCC4)c4ccccc4)cc3)CC2)nc1` [Example 33], for which the half-inhibitory concentration (IC50) with HeLa cells was 331 to 3300 nM; in the assay on U937 cells (72-96 h), less than 330 nM; in assay [1] it was less than 100 nM; in the assay with HUT cells, less than 330 nM.

Turning to `O=C(NO)c1cnc(N2CC3C(CNCc4ccc(CN[C@H](C(=O)OC5CCCC5)c5ccccc5)cc4)C3C2)nc1` (stereo partly drawn) [Example 35, Cyclopentyl (2S)-[(4-{[({3-[5-(hydroxycarbamoyl)pyrimidin-2-yl]-3-azabicyclo[3.1.0]hex-6-yl}methyl)amino]methyl}benzyl)amino](phenyl)acetate], the concentration for half-maximal inhibition (IC50) in the assay on HeLa cells (Homo sapiens) was 331 to 3300 nM; with U937 cells (Homo sapiens, U-937, 72-96 h) it was 331 to 3300 nM; in assay [1], less than 100 nM; in the assay on HUT cells, 331 to 3300 nM.

As for `O=C(NO)c1cnc(N2CCC(CNCc3ccc(CN[C@H](C(=O)OC4CCCC4)C4CCCCC4)cc3)CC2)nc1` [Example 38, Cyclopentyl (2S)-cyclohexyl[(4-{[({1-[5-(hydroxycarbamoyl)pyrimidin-2-yl]piperidin-4-yl}methyl)amino]methyl}benzyl)amino]acetate], the IC50 was less than 330 nM in the assay with HeLa cells (Homo sapiens); less than 330 nM with U937 cells (Homo sapiens, U-937, 72-96 h); less than 100 nM in assay [1]; 331 to 3300 nM with HUT cells.

These data come from US8962825B2, “Hydroxamates as inhibitors of histone deacetylase” (GlaxoSmithKline Intellectual Property Development Limited, priority 2006, dated 2015).
